Experimental findings from patent US20100179225A1, “POI Prevention” (CYTOKINE PHARMASCIENCES, INC., priority 2008, published 2010) are described below.

Structures are written as SMILES.

The subject of test [1] is mice. The test is described as follows: In vivo gastrointestinal transit (FITC-dextran geometric center) after IM, mouse. How it is done:
Gastrointestinal transit was measured 23.5 hours postoperatively by evaluating the intestinal location of a fluorochrome labeled dextran (FITC—dextran, 70.000 MW, Molecular Probes, Netherlands) (n=10 each). Thereto, 22 hours after the bowel manipulation, animals were lightly anesthetized and given FITC-dextran (200 μl of 6.25 mg/ml stock solution) via a gastric tube into the stomach. Mice were killed 90 minutes after administration, the entire gastrointestinal tract was divided into 15 segments, opened and FITC-dextran was washed out by PBS. Fluorescence of segment washes was read at 494 nm/521 nm wavelength in fluorescence reader (Tecan, Crailsheim, Germany). The data were expressed as the percentage of activity per segment. Gastrointestinal transit was calculated as the geometric center (GC) of distribution of fluorescence marker using this formula:
GC=Σ(% of total fluorescent signal per segment*segment number)/100.

For test [2], the system named is jejunal circular smooth muscle. The test is described as follows: In vitro jejunal circular smooth muscle contractility (bethanechol) after IM, mouse. It is filed as in vivo, mice. The protocol:
Jejunal smooth muscle activity was measured as previously described (Kalff J C, Schraut W H, Simmons R L et al. Surgical manipulation of the gut elicits an intestinal muscularis inflammatory response resulting in postsurgical ileus. Ann Surg 1998; 228:652-663). Briefly, after preparation, mucosa-free circular ME strips were equilibrated in KRB perfused organ chambers at 37° C. for 1 hour. One end of each strip was tied to a fixed post and the other attached to an isometric force transducer (ADI, Heidelberg, Germany) connected to the bridge amplifier and powerlab system (ADI). Dose-response curves of muscle contraction were generated by exposing the muscle strips to increasing concentrations of the muscarinic agonist bethanechol (0.1-300 μmol/L) for 10 minutes, followed by a wash-period (KRB) of 10 minutes. The contractile response was analyzed with the ADI Chart© software and the contractions were calculated as grams per square millimeter per second by conversion of the weight and length of the strip to square millimeters of tissue.

For test [3], the system named is neutrophils in ME. The test is described as follows: Neutrophil infiltration into mouse ME (myeloperoxidase staining of whole mounts) after IM. It is filed as in vivo, mice. As to conditions: for number of neutrophils in ME: 24 hours after IM. An excerpt:
The small bowel of the animals was subjected to a standardized, surgical manipulation (IM) as described previously (Kalff J C, Schraut W H, Simmons R L et al. Surgical manipulation of the gut elicits an intestinal muscularis inflammatory response resulting in postsurgical ileus. Ann Surg 1998; 228:652-663; Wehner S, Schwarz N T, Hundsdoerfer R et al. Induction of IL-6 within the rodent intestinal muscularis after intestinal surgical stress. Surgery 2005; 137:436-446). In brief, after anesthesia a midline abdominal incision was made into the peritoneal cavity. The entire small bowel was eventuated and manipulated with standardized moderate intensity using two moist cotton applicators as described previously. After IM, the laparotomy was closed by one layer of continuous suture, except when probe sampling was conducted within 20 minutes after surgery. These animals were held in anesthesia and the abdomen was closed by a clamp and protected with sterile gauze. All other animals recovered rapidly from the bowel manipulation procedure. Control animals exclusively underwent laparotomy without eventration and IM (sham operation).
Animals within examples referring to FIGS. 2-9 were treated 90 minutes before operation with 0 mg/kg (placebo group), or 5 mg/kg bodyweight CNI-1493. In further experiments in rats or mice 0.1, 1.0 or 10 mg/kg CPSI-2364 were administered 90 minutes before surgical procedure via oral route. Oral (p.o.) administration was performed via a gastric tube. CNI-1493 and CPSI-2364 were dissolved in 2.5% mannitol. Placebo and CNI-1493 or CPSI-2364 groups were subdivided in two further groups. One was sham operated (laparotomy without IM) while the other underwent laparotomy followed by IM.
Specimens for histochemical analysis were prepared 24 h after operation and performed on whole mounts of the distal jejunum, as described before in detail (n=5-7 each group) 9. In brief, jejunal segments were opened, immersed in chilled Krebs-Ringer buffer (KRB) and fixed in 100% ethanol for 10 minutes. After washing with KRB, mucosa and submucosa were stripped off and ME whole mounts were used for detection of myeloperoxidase (MPO) positive cells (neutrophils). Thereto, freshly prepared whole mounts were stained with Hanker-Yates reagent as described previously (Wehner S, Schwarz N T, Hundsdoerfer R et al. Induction of IL-6 within the rodent intestinal muscularis after intestinal surgical stress. Surgery 2005; 137:436-446). MPO+-cells were counted under a microscope (TE-2000, Nikon, Duesseldorf, Germany) in 5 randomly chosen areas in each specimen.

For test [4], the system named is nitric oxide (NO) production in ME. Put plainly: Nitric oxide release from cultured mouse ME (Griess reaction) after IM. It counts as in vivo, mice. The protocol:
[…] Control animals received CNI-1493 (5 mg/kg) intravenously or CPSI-2364 orally (1 mg/kg or 0.1 mg/kg), but were not operated.
After preoperative i.v. or oral drug or placebo administration animals underwent IM. Control animals received CNI-1493 or placebo i.v. or orally but were not operated.
Total ME from small intestine was isolated 24 h after operation as described above and then cut into small pieces and washed for 30 minutes in PBS containing a penicillin/streptomycin (200U/200 μg) mixture. Aliquots of ˜50 mg were incubated in 1 mL of DMEM at 37° C. and 5% CO2 for further 24 hours and tissue culture supernatants were frozen in liquid nitrogen. The muscle tissue was blotted dry, and the exact weight was measured. To quantify the generation of NO from intestinal smooth muscle preparations, nitrite production was measured by the Griess reaction as described previously (Kalff J C, Schraut W H, Billiar T R et al. Role of inducible nitric oxide synthase in postoperative intestinal smooth muscle dysfunction in rodents. Gastroenterology 2000; 118:316-327). In brief, supernatant from the tissue culture was mixed with an equal volume of Griess reagent (0.1% N-(1-napthyl)ethyl-enediamine dihydrochloride and 1% sulfanilamide in 6% phosphoric acid; 1:1) and incubated for 10 minutes. The absorbance at 550 nm was measured with a microplate reader and compared with standard dilutions of sodium nitrite. Total nitrite produced was normalized to 1 g of muscle tissue.

For test [5], the system named is mice. The test is described as follows: In vivo colonic transit (glass ball excretion time) after IM, mouse. How it is done: Colonic transit measurement was performed 24 h hours after operation by inserting a 2 mm glass ball with a metal rod 3 cm into the colon. Before insertion colonic patency was ensured by exclusively inserting the rod 3 cm into the colon. Mice were weakly anesthetized with isofluran for the whole procedure and wake up within 40 seconds after glass ball insertion. Colonic transit time was calculated as the period between insertion and excretion of the ball.

Turning to `C/C(=N\N=C(N)N)c1cc(NC(=O)CCCCCCCCC(=O)Nc2cc(/C(C)=N/N=C(N)N)cc(/C(C)=N/N=C(N)N)c2)cc(/C(C)=N/N=C(N)N)c1.Cl.Cl.Cl.Cl` [CNI-1493], the “gastrointestinal transit, geometric center (GC)” value turned out to be 10.96±1.71 in test [1] (5 mg/kg i.p. preoperative, IM); 9.81±0.92 in test [1] (5 mg/kg i.p., sham operated); 8.97±0.60 in test [1] (5 mg/kg i.v. 90 minutes before operation, IM); 11.98±0.73 in test [1] (5 mg/kg i.v., sham operated); 5.48±2.01 in test [1] (given immediately before laparotomy and IM (results not shown)). Moreover, in test [2] (5 mg/kg i.v. preoperative, 24 h after IM), the “suppression of bethanechol stimulated muscle contractility after IM” value is reported as “completely abrogated”. Besides, the “number of neutrophils in ME” value in test [3] (5 mg/kg i.p. preoperative) was determined as 36.1±10.7; in test [3] (5 mg/kg i.v. preoperative) it was 52.1±15.5. Moreover, the “neutrophil infiltration, reduction” value in test [3] (intravenous treatment, after IM) is “reduced by only one third”. In addition, the “NO production (nitrite release) from ME” value came to 333 ± 198 µM in test [4] (5 mg/kg i.v. preoperative, ME taken 24 h after IM, cultured 24 h) and 45.5 ± 52.2 µM in test [4] (5 mg/kg i.v., non-operated animals (basal)). The colonic transit time in test [5] (5 mg/kg intravenously preoperative, 24 hours after IM) is 166 ± 87 s; in test [5] (unoperated controls of the CNI-1493 group (S-CTL, FIG. 8E)) it was 118 ± 68 s.

For `C/C(=N\N=C(N)N)c1cc(NC(=O)CCCCCCCCC(=O)Nc2cc(/C(C)=N/N=C(N)N)cc(/C(C)=N/N=C(N)N)c2)cc(/C(C)=N/N=C(N)N)c1.CS(=O)(=O)O.CS(=O)(=O)O.CS(=O)(=O)O.CS(=O)(=O)O` [CPSI-2364], in test [1] (mice, 0.1, 1 or 10 mg/kg orally 90 minutes, 6 hours or 16 h before operation, IM (FIG. 25)), the “geometric centers of FITC dextran distribution vs Sham+Placebo” value is “None of the CPSI-2364 treated groups differed significantly from the Sham+Placebo group”. Also, the “gastrointestinal transit (GIT)” value in test [1] (mice, p.o. preoperative, IM (FIG. 14)) is on record as “normalized GIT”. Further, the “suppression of bethanechol stimulated muscle contractility after IM” value in test [2] (mice, p.o. preoperative (FIG. 13)) is reported as “strongly abrogated”. In test [3] (mice, p.o. preoperative, 24 hours after IM (FIG. 11)), the “neutrophils in ME compared to the placebo IM group” value is recorded as “significant reduction of neutrophils”. Also, in test [4] (mice, 10 mg/kg orally 90 minutes or intravenously 60 minutes before operation, IM (FIG. 27)), the “nitric oxide and its metabolites in muscularis culture supernatant vs Sham+Placebo” value is listed as “None of the CPSI-2364 treated group differed significantly different from Sham+Placebo group”. Moreover, the “colonic transit, excretion time of the ball vs Sham+Placebo” value in test [5] (mice, 0.1, 1 or 10 mg/kg orally 90 minutes, 6 hours or 16 h before operation, IM (FIG. 26)) is listed as “None of the CPSI-2364 treated group differed significantly from Sham+Placebo group”.
